Here are results for 1 compound from ChEMBL document CHEMBL1201862, “PubChem BioAssay data set” (2004).

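1) Cells in 96-well plates. 2) Compound, 48 h, 5 concentrations. 3) Linear interpolation between surrounding doses. 4) Unreached endpoint = highest concentration. Abbreviation: GI50, concentration required for 50% inhibition of growth.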 The source made the active and inactive calls. No stated cut-off is given here; in the data, active = GI50 up to about 1.1 µM and inactive = higher.

Test systems include HOP-92; TK-10; HCC 2998; RPMI-8226; SK-MEL-28; RXF 393; SN12C; IGROV-1; EKVX; NCI-H226; UACC-257; OVCAR-3; HL-60; OVCAR-8; MDA-MB-435; Malme-3M; PC-3; KM12; HT-29; HCT-15.
Holding throughout (assay): growth of human tumour cells (NCI), 48 h

In the case of `NC1CCC(c2cc3ccccc3s2)(N2CCCCC2)CC1` (stereo not given), the GI50 in the test on HOP-92 was 489 nM (active); in the test with TK-10 it was 5780 nM (inactive); in the test on HCC 2998, 1040 nM (active); with RPMI-8226 it was 817 nM (active); in the test with SK-MEL-28, 1580 nM (inactive); with RXF 393, 6010 nM (inactive). Moreover, the GI50 with SN12C is 1670 nM (inactive); in the test with IGROV-1, 1660 nM (inactive); with EKVX, 1410 nM (inactive); with NCI-H226 it was 24100 nM (inactive); with UACC-257, 1620 nM (inactive); in the test with OVCAR-3, 1270 nM (inactive). In addition, the GI50 in the test with HL-60 is 1850 nM (inactive); with OVCAR-8, 1720 nM (inactive); in the test with MDA-MB-435, 1350 nM (inactive); in the test on Malme-3M, 2230 nM (inactive); with PC-3 it was 1550 nM (inactive); in the test on KM12, 1730 nM (inactive). Besides, the GI50 is 1210 nM (inactive) in the test with HT-29 and 1770 nM with HCT-15.
